Test results reported in the supplement of paper PMC10307832.

Columns and labels:
Assay in all cases: relative viability (nuclei count vs DMSO), 5 days (fraction); higher = more cells survive
DM3189 + Tozasertib = compound: C1CN(CCN1)C2=CC=C(C=C2)C3=CN4C(=C(C=N4)C5=CC=NC6=CC=CC=C56)N=C3 [DM3189] + Cc1cc(Nc2cc(N3CCN(C)CC3)nc(Sc3ccc(NC(=O)C4CC4)cc3)n2)n[nH]1 [Tozasertib] (partner 0.1 µM)
How it was run: (§1)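 Nuclei were stained with Hoechst during a one-step fixation (final 0.05% Triton X-100, 1% formaldehyde, 1 ug/ml Hoechst) carried out 5 days after dosing, then counted on 4× images. The cells, lung cancer lines in 1536-well plates, had been dosed by pin tool the day after seeding with one drug alone or a fixed anchor-drug dose plus five library-drug doses (not always all listed) in √10 steps. Relative viability is the nuclei count in treated wells divided by that in vehicle wells, and each value is the median of duplicate plates.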

DM3189 + Trametinib = compound: C1CN(CCN1)C2=CC=C(C=C2)C3=CN4C(=C(C=N4)C5=CC=NC6=CC=CC=C56)N=C3 [DM3189] + CC(=O)Nc1cccc(-n2c(=O)n(C3CC3)c(=O)c3c(Nc4ccc(I)cc4F)n(C)c(=O)c(C)c32)c1 [Trametinib] (partner 0.02 µM)
How it was run: as §1

DM3189 + Olaparib = compound: C1CN(CCN1)C2=CC=C(C=C2)C3=CN4C(=C(C=N4)C5=CC=NC6=CC=CC=C56)N=C3 [DM3189] + O=C(c1cc(Cc2n[nH]c(=O)c3ccccc23)ccc1F)N1CCN(C(=O)C2CC2)CC1 [Olaparib] (partner 8 µM)
How it was run: as §1

DM3189 + Navitoclax = compound: C1CN(CCN1)C2=CC=C(C=C2)C3=CN4C(=C(C=N4)C5=CC=NC6=CC=CC=C56)N=C3 [DM3189] + CC1(C)CCC(c2ccc(Cl)cc2)=C(CN2CCN(c3ccc(C(=O)NS(=O)(=O)c4ccc(N[C@H](CCN5CCOCC5)CSc5ccccc5)c(S(=O)(=O)C(F)(F)F)c4)cc3)CC2)C1 [Navitoclax] (partner 0.5 µM)
How it was run: as §1

DM3189 + OSI-027 = compound: C1CN(CCN1)C2=CC=C(C=C2)C3=CN4C(=C(C=N4)C5=CC=NC6=CC=CC=C56)N=C3 [DM3189] + COc1cccc2cc(-c3nc([C@H]4CC[C@H](C(=O)O)CC4)n4ncnc(N)c34)[nH]c12 [OSI-027] (partner 0.5 µM)
How it was run: as §1

Row | Cell Line | relative viability (DM3189 + Tozasertib; first compound 0.08 µM) | relative viability (DM3189 + Tozasertib; first compound 0.253 µM) | relative viability (DM3189 + Tozasertib; first compound 0.8 µM) | relative viability (DM3189 + Tozasertib; first compound 2.53 µM) | relative viability (DM3189 + Trametinib; first compound 0.08 µM) | relative viability (DM3189 + Trametinib; first compound 0.253 µM) | relative viability (DM3189 + Trametinib; first compound 0.8 µM) | relative viability (DM3189 + Trametinib; first compound 2.53 µM) | relative viability (DM3189 + Olaparib; first compound 0.08 µM) | relative viability (DM3189 + Olaparib; first compound 0.253 µM) | relative viability (DM3189 + Olaparib; first compound 0.8 µM) | relative viability (DM3189 + Olaparib; first compound 2.53 µM) | relative viability (DM3189 + Navitoclax; first compound 0.08 µM) | relative viability (DM3189 + Navitoclax; first compound 0.253 µM) | relative viability (DM3189 + Navitoclax; first compound 0.8 µM) | relative viability (DM3189 + Navitoclax; first compound 2.53 µM) | relative viability (DM3189 + OSI-027; first compound 0.08 µM) | relative viability (DM3189 + OSI-027; first compound 0.253 µM) | relative viability (DM3189 + OSI-027; first compound 0.8 µM) | relative viability (DM3189 + OSI-027; first compound 2.53 µM)
1 | NCI-H2347 | 0.464 | 0.475 | 0.521 | 0.515 | 0.28 | 0.262 | 0.276 | 0.31 | 0.544 | 0.53 | 0.522 | 0.55 | 0.861 | 0.819 | 0.743 | 0.763 | 0.486 | 0.337 | 0.455 | 0.335
2 | NCI-H2405 | 0.791 | 0.7 | 0.741 | 0.692 | 0.669 | 0.615 | 0.614 | 0.579 | 0.919 | 0.858 | 0.781 | 0.793 | 0.758 | 0.802 | 0.873 | 0.89 | 0.584 | 0.608 | 0.636 | 0.724
3 | NCI-H3122 | 0.38 | 0.35 | 0.333 | 0.382 | 0.19 | 0.205 | 0.181 | 0.217 | 0.698 | 0.606 | 0.545 | 0.73 | 0.97 | 0.968 | 0.957 | 0.824 | 1.16 | 0.916 | 0.909 | 1.04
4 | PC-3 [JPC-3] | 0.84 | 0.968 | 0.848 | 0.774 | 0.75 | 0.776 | 0.722 | 0.788 | 1.17 | 1.11 | 1.08 | 1.05 | 0.826 | 0.83 | 0.859 | 0.892 | 0.887 | 0.422 | 0.79 | 0.587
5 | PC-14 | 0.547 | 0.522 | 0.567 | 0.606 | 0.732 | 0.877 | 0.635 | 0.849 | 0.277 | 0.238 | 0.264 | 0.226 | 1.04 | 1.03 | 1 | 1.08 | 1.05 | 0.837 | 0.76 | 0.946
6 | RERF-LC-KJ | 0.533 | 0.456 | 0.466 | 0.43 | 1.03 | 0.95 | 0.927 | 0.986 | 0.942 | 0.889 | 0.823 | 0.833 | 0.997 | 1.35 | 0.81 | 1.09 | 0.666 | 0.59 | 0.586 | 0.601
7 | SK-LU-1 | 0.241 | 0.204 | 0.248 | 0.219 | 0.441 | 0.402 | 0.429 | 0.378 | 0.449 | 0.398 | 0.35 | 0.372 | 0.686 | 0.595 | 0.564 | 0.397 | 0.373 | 0.283 | 0.299 | 0.284
8 | SK-MES-1 | 0.901 | 0.831 | 0.687 | 0.87 | 0.54 | 0.485 | 0.481 | 0.548 | 0.679 | 0.546 | 0.594 | 0.348 | 1.21 | 1.28 | 1.08 | 1.18 | 0.602 | 0.53 | 0.523 | 0.481
9 | SW 1573 | 0.212 | 0.171 | 0.142 | 0.153 | 0.677 | 0.6 | 0.53 | 0.539 | 0.543 | 0.449 | 0.441 | 0.106 | 1.11 | 0.964 | 0.901 | 1.25 | 0.569 | 0.618 | 0.488 | 0.523
10 | UMC-11 | 0.189 | 0.201 | 0.199 | 0.21 | 0.745 | 0.706 | 0.59 | 0.62 | 0.395 | 0.37 | 0.35 | 0.458 | 0.287 | 0.322 | 0.295 | 0.265 | 0.531 | 0.461 | 0.395 | 0.51
